Experimental data: patent US20180311342A1, “IMMUNOSTIMULATING AGENT” (AJINOMOTO CO., INC., priority 2017, published 2018)

Tests used:
[1] = tested on: anti-OVA-specific IgG1 subclass antibody; experiment: Adjuvant activity test: anti-OVA-specific IgG1 subclass antibody in serum of OVA-immunized mice (ELISA); assay type: in vivo, BALB/c mice; details: after secondary immunization, serum 2 weeks later; OVA 5 μg + compound 0.256 μmol in 5% αCD-added saline (Addavax mixed with saline at 1:1), dorsal-subcutaneous; compared to OVA single administration group
Protocol: (§1) 8-Week-old female BALB/c mice were divided into groups (N=6), and each group was primarily immunized by dorsal-subcutaneous administration of (1) ovalbumin (OVA) (5 μg) dissolved in saline as an antigen (OVA single administration group), (2) OVA 5 μg and Addavax™ (mixed with saline at 1:1) dissolved in saline (Addavax™ administration group) as positive control adjuvant, (3) OVA 5 μg and SZ137 0.256 μmol dissolved or dispersed in 5% α-cyclodextrin (hereinafter to be simply referred to as αCD)-added saline (SZ137 administration group), (4) OVA (5 μg) and SZ138 (0.256 μmol) dissolved or dispersed in 5% αCD-added saline (SZ138 administration group), (5) OVA (5 μg) and SZ142 (0.256 μmol) dissolved or dispersed in 5% αCD-added saline (SZ142 administration group), (6) OVA (5 μg) and SZ144 (0.256 μmol) dissolved or dispersed in 5% αCD-added saline (SZ144 administration group), (7) OVA (5 μg) and SZ145 (0.256 μmol) dissolved or dispersed in 5% αCD-added saline (SZ145 administration group), (8) OVA (5 μg) and SZ146 (0.256 μmol) dissolved or dispersed in 5% αCD-added saline (SZ146 administration group), (9) OVA (5 μg) and SZ147 (0.256 μmol) dissolved or dispersed in 5% αCD-added saline (SZ147 administration group), (10) OVA (5 μg) and SZ148 (0.256 μmol) dissolved or dispersed in 5% αCD-added saline (SZ148 administration group), each per mouse. Two week later, the secondary immunization was carried out by dorsal-subcutaneous administration of solutions or dispersions similar to those of the above-mentioned (1)-(10) again. Two weeks from the secondary immunization, the whole blood was extracted under anesthesia, and the obtained serum sample was measured for anti-OVA-specific IgG1 subclass antibody, anti-OVA-specific IgG2a subclass antibody, and anti-OVA-specific IgE antibody.
(§2) The measurement method of the anti-OVA-specific IgG1 subclass antibody and anti-OVA-specific IgG2a subclass antibody in Experimental Example 1 and the following Experimental Examples 2-10 is as follows.
(§3) To a 96 well plate was added 5 μg/ml OVA at 100 µl/well, and the mixture was incubated at 4° C. overnight. After incubation, the mixture was washed three times with 200 μl of PBS-T (PBS (phosphate buffered saline)+0.05% (v/v) Tween 20) per well, and blocked with 100 μl of 5% FCS (fetal calf serum)/PBS solution per well at room temperature for 1-2 hr. Thereafter, the mixture was washed three times with PBS-T (200 μl/well), a diluted serum sample (100 l/well) or the same amount of 5% FCS/PBS solution as a control was added, and the mixture was incubated at 37° C. for 1 hr. To calculate concentration of the antibody, the standard of an anti-OVA-specific IgG1 subclass antibody diluted with 2% FCS/PBS solution was added at 100 ng/ml, 50 ng/ml, 25 ng/ml, 12.5 ng/ml, 6.25 ng/ml, 3.125 ng/ml, 1.56 ng/ml, 0.781 ng/ml, 0.391 ng/ml, 0.195 ng/ml, 0.098 ng/ml, 0 ng/ml, per 1 well. When an anti-OVA-specific IgG2a subclass antibody was measured, the standard of an anti-OVA-specific IgG2a subclass antibody was added at 50 ng/ml, 25 ng/ml, 12.5 ng/ml, 6.25 ng/ml, 3.125 ng/ml, 1.56 ng/ml, 0.781 ng/ml, 0.391 ng/ml, 0.195 ng/ml, 0.098 ng/ml, 0.049 ng/ml, 0 ng/ml, per 1 well. Thereafter, similar to the samples, the mixture was washed five times with PBS-T (200 μl/well), a diluted biotinylated anti-mouse IgG1 antibody and IgG2a antibody were added (100 μl/well), and the mixture was incubated at 37° C. for 45 min. Thereafter, the mixture was washed five times with PBS-T (200 μl/well), a diluted anti-biotin-HRP antibody was added (100 μl/well), and the mixture was incubated at 37° C. for another 30 min. Thereafter, the mixture was washed five times with PBS-T (200 μl/well), TMB substrate solution was added (100 μl/well), and the mixture was incubated at room temperature for 10-15 min. Thereafter, a reaction quenching liquid (2N sulfuric acid solution) was added (50 l/well) to discontinue a color developing reaction, and the absorbance (OD Value=450 nm) was measured by a microplate reader. […]

[2] = tested on: anti-OVA-specific IgG2a subclass antibody; experiment: Adjuvant activity test: anti-OVA-specific IgG2a subclass antibody in serum of OVA-immunized mice (ELISA); assay type: in vivo, BALB/c mice; details: after secondary immunization, serum 2 weeks later; OVA 5 μg + compound 0.256 μmol in 5% αCD-added saline (Addavax mixed with saline at 1:1), dorsal-subcutaneous; compared to OVA single administration group
Protocol: as §1, §2, §3

Structure (SMILES)	anti-OVA-specific IgG1 subclass antibody production [1]	anti-OVA-specific IgG2a subclass antibody production [2]
CCCCCCCCCCCCCCCCCCNC(=O)N[C@@H](CCCNC(=N)N)C(=O)NCCCCCCCCCCCC.Cl [SZ211, (2S)—N-dodecyl-5-guanidino-2-(octadecylcarbamoylamino)pentanamide hydrochloride]	significant enhancement	significant enhancement
CCCCCCCCCCCCCCCCOC(=O)N[C@@H](CCCNC(=N)N)C(=O)NCCCCCCCC.Cl [SZ215, hexadecyl N-[(1S)-4-guanidino-1-(octylcarbamoyl)butyl]carbamate hydrochloride]	a tendency toward increase	significant enhancement
CCCCCCCCCCCCCCCCOC(=O)N[C@@H](CCCCN)C(=O)NCCCCCCCC.Cl [SZ188, hexadecyl N-[(1S)-5-amino-1-(octylcarbamoyl)pentyl]carbamate hydrochloride]	showed a tendency to increase	showed a tendency to increase
CCCCCCCCCCCCCCCCNC(=O)N[C@@H](CCCCN)C(=O)NCCCCCCCC.Cl [SZ213, (2S)-6-amino-2-(hexadecylcarbamoylamino)-N-octyl-hexanamide hydrochloride]	significant enhancement	significant enhancement
CCCCCCCCCCCCCCCCNC(=O)N[C@@H](CCCNC(=N)N)C(=O)NCCCCCCCC.Cl [SZ210, (2S)-5-guanidino-2-(hexadecylcarbamoylamino)-N-octyl-pentanamide hydrochloride]	significant enhancement	significant enhancement
CCCCCCCCCCCCCCCC(=O)N[C@@H](CCCCN)C(=O)NCCCCCCCCCCCC.Cl [SZ153, N-[(1S)-5-amino-1-(dodecylcarbamoyl)pentyl]hexadecanamide hydrochloride]	significantly increased	significantly increased
CCCCCCCCCCCCCCCCCCCC(=O)N[C@@H](CCCNC(=N)N)C(=O)NCCCCCCCCCCCC.Cl [SZ180, N-[(1S)-1-(dodecylcarbamoyl)-4-guanidino-butyl]icosanamide hydrochloride]	significant enhancement	significant enhancement
CCCCCCCCCCCCCCCC(=O)N[C@@H](CC(C)C)C(=O)NCCCCCCCC [SZ199, N-[(1S)-3-methyl-1-(octylcarbamoyl)butyl]hexadecanamide]	significant enhancement	tended to increase
CCCCCCCCCCCCCCCCCCCCCC(=O)N[C@@H](CCCCNC(=N)N)C(=O)NCCCCCCCCCCCC.Cl [SZ166, N-[(1S)-1-(dodecylcarbamoyl)-5-guanidino-pentyl]docosanamide hydrochloride]	tended to increase	tended to increase
CCCCCCCCCCCCCCCCNC(=O)N[C@@H](CCCCN)C(=O)NCCCCCCCCCCCC.Cl [SZ214, (2S)-6-amino-N-dodecyl-2-(hexadecylcarbamoylamino)hexanamide hydrochloride]	significant enhancement	significant enhancement
CCCCCCCCCCCCCCCCCCCCCC(=O)N[C@@H](C)C(=O)NCCCCCCCCCCCC [SZ145, N-[(1S)-2-(dodecylamino)-1-methyl-2-oxo-ethyl]docosanamide]	showed a tendency to increase	showed a tendency to increase
CCCCCCCCCCCCCCCCCC(=O)N[C@@H](CCCCNC(=N)N)C(=O)NCCCCCC.Cl [SZ206, N-[(1S)-1-(hexylcarbamoyl)-5-guanidino-pentyl]octadecanamide hydrochloride]		significant enhancement
